Data on 52 compounds can be found in PubChem BioAssay AID1996.

Values after ≈ are worked out from the molar mass of the structure shown. A value given as a limit tells only on which side of the number the result lay.

For this data set the following is noted: buffer; pH 7.4; 200.0 µM.
Usually solubility (kinetic) stands for the concentration staying in solution when a stock, usually in DMSO, is diluted into the medium. For `O=[N+]([O-])c1ccc(O)c([N+](=O)[O-])c1`, the solubility (kinetic) is > 27.6 µg/mL.
As to `CCC(CC)C(=O)Nc1nnc(SCC(=O)NC(C)(C)C)s1`, the solubility (kinetic) was > 51.7 µg/mL.
Turning to `NC(=O)C1CCN(S(=O)(=O)Cc2ccccc2Cl)CC1`, the kinetic solubility is > 47.5 µg/mL.
On to `O=C(NCCc1ccc(Cl)cc1)c1ccc2nccnc2c1`, for which the kinetic solubility was 4.8 µg/mL (≈ 15.4 µM).
`O=[N+]([O-])c1ccc(N2CCN(c3ccccc3F)CC2)nc1`: the solubility (kinetic) is 0.7 µg/mL (≈ 2.32 µM).
On to `CC(C)[C@H](NC(=O)c1ccccc1F)C(=O)NC1CCCCCCC1`, for which the solubility (kinetic) worked out at 7.5 µg/mL (≈ 21.5 µM).
The result for `Cc1onc(-c2ccccc2)c1C(=O)NCc1ccc(F)cc1` reads 7 µg/mL (≈ 22.6 µM); that for `O=C(Nc1ccc(CN2CCOCC2)cc1)c1cc(Br)ccc1Cl`, 57 µg/mL (≈ 139 µM).
In turn, `CCC(C)c1ccc(S(=O)(=O)Nc2cccnc2)cc1.Cl` (configuration not stated) displayed a kinetic solubility of 35.9 µg/mL.
The result for `Cc1nc2ccc(NC(=O)c3cccs3)cc2s1` reads 8.4 µg/mL (≈ 30.6 µM); that for `COc1ccc(CCNC(=O)/C=C/C(=O)O)cc1`, > 37.4 µg/mL.
Under `CN1c2ccc(Cl)cc2C(=O)NC1c1ccc([N+](=O)[O-])s1` (configuration not stated) stands 30.1 µg/mL (≈ 93 µM); under `COc1ccc(C)cc1NC(=O)C1CC1c1ccccc1` (configuration not stated), 4.7 µg/mL (≈ 16.7 µM).
Under `COc1ccc(C(=O)O)cc1S(=O)(=O)NC1CCN(Cc2ccccc2)CC1` stands 59.1 µg/mL (≈ 146 µM); under `O=C(NC12CC3CC(CC(C3)C1)C2)c1ccco1`, 36.5 µg/mL (≈ 149 µM); under `COc1ccc(CNc2ccc3c(c2)ncn3C)cc1OC`, 29.7 µg/mL (≈ 99.9 µM).
For `Cc1c(NS(C)(=O)=O)cccc1-c1nc2cccnc2s1`, the kinetic solubility is 42.9 µg/mL (≈ 134 µM).
On to `O=C1COc2ccc(S(=O)(=O)N3CCCCCC3)cc2N1`, for which the kinetic solubility is > 46.6 µg/mL.
In the case of `COc1ccccc1Nc1ncnc2c1c(C)c(C)n2CCO`, the kinetic solubility came out at 15.4 µg/mL (≈ 49.3 µM).
As for `Cc1cc(C(=O)O)ccc1NCc1ccncc1`, the kinetic solubility was > 36.3 µg/mL.
Under `O=C(COc1ccccc1F)Nc1ccc2c(c1)OCCO2` stands 14.1 µg/mL (≈ 46.5 µM).
Regarding `COC(=O)c1cc(OC)nc2ccc(Br)cc12`, the solubility (kinetic) was < 0.6 µg/mL.
Under `CCc1cccc(NC(=S)Nc2cccc3ccccc23)c1` stands 3.8 µg/mL (≈ 12.4 µM); under `CC(C)CCN1CCN(Cc2ccon2)CC1CCO` (configuration not stated), > 42.2 µg/mL; under `CCCCNC(=O)COC(=O)c1ccc(C)c(NC(=O)c2ccco2)c1`, 17.8 µg/mL (≈ 49.7 µM).
Under `Fc1ccccc1C1CCN(Cc2nc(COc3ccccc3)no2)C1` (configuration not stated) stands 12.7 µg/mL (≈ 35.9 µM); under `COc1cc(OC)cc(C(=O)OCC(=O)Nc2ccc3[nH]c(=O)[nH]c3c2)c1`, 4.4 µg/mL (≈ 11.8 µM).
Under `CC(=O)NS(=O)(=O)c1ccc(NC(=O)c2cccc3ccccc23)cc1` stands 53.9 µg/mL (≈ 146 µM); under `COc1ccc(S(=O)(=O)N2CCN(Cc3cccs3)CC2)cc1OC`, 55.7 µg/mL (≈ 146 µM); under `Cc1ccc2c(c1)-c1[nH]c(=S)ncc1CS2`, 3.8 µg/mL (≈ 15.4 µM).
Turning to `COc1ccc(CCN2Cc3c(N)cccc3C2=O)cc1OC`, the solubility (kinetic) is > 46.9 µg/mL.
The result for `O=C1CSC(c2ccccc2)N1Cc1ccccc1` (configuration not stated) reads 31.3 µg/mL (≈ 116 µM); that for `N#C/C(=C\c1cccs1)C(=O)N1CCOCC1`, 35.5 µg/mL (≈ 143 µM).
As to `O=C(CNC(=O)c1ccco1)NCc1nc2ccccc2[nH]1`, the kinetic solubility is > 44.7 µg/mL.
The compound `Cc1cc(Cl)ccc1NC(=O)c1ccc2c(c1)OCO2` showed a solubility (kinetic) of 2.5 µg/mL (≈ 8.63 µM).
The result for `CC1CCN(C(=O)c2ccc([N+](=O)[O-])o2)CC1` reads > 35.7 µg/mL; that for `Cc1cccc(CCNCc2cc3cc(C)cc(C)c3[nH]c2=O)c1`, 42.5 µg/mL (≈ 133 µM).
`CCOC(=O)NC(C)N1C(=O)C2C3C=CC(C3)C2C1=O` (configuration not stated): the solubility (kinetic) is > 41.7 µg/mL.
Under `COc1cc(C(=O)Nc2ccncc2)c([N+](=O)[O-])cc1OC` stands > 45.5 µg/mL; under `Cc1ccccc1C1NC(=O)c2ccccc2O1` (configuration not stated), 18.3 µg/mL (≈ 76.5 µM).
Consider `COc1ccc(C)cc1S(=O)(=O)N1CCc2ccccc2C1`, for which the solubility (kinetic) was found to be 18.1 µg/mL (≈ 57 µM).
The result for `Cc1ccccc1NC(=O)CCCNC(=O)c1ccc(Cl)cc1` reads 42.6 µg/mL (≈ 129 µM).
Under `COc1ccc(OC)c(/C=N/OC(=O)Nc2ccc(Cl)cc2)c1` stands 8.3 µg/mL (≈ 24.8 µM).
As to `Oc1cccc2ccc(/C=C/c3ccccc3Br)nc12`, the kinetic solubility is < 0.7 µg/mL.
As to `CSc1ncccc1C(=O)N(C)CC(=O)Nc1cccc(F)c1`, the kinetic solubility was > 50 µg/mL.
In turn, `CS(=O)(=O)c1ccc2nc(NC(=O)CN3CCOCC3)sc2c1` came in with a solubility (kinetic) of 40.6 µg/mL (≈ 114 µM).
Compound `O=C(c1ccc(Cl)cc1)N1CCc2ccccc21` had a solubility (kinetic) of 7.2 µg/mL (≈ 27.9 µM).
Under `COc1ccc(OC)c(/C=C2\SC(N3CCCCC3)=NC2=O)c1` stands 5.4 µg/mL (≈ 16.2 µM); under `COc1ccc(N2C(=O)NC3CC2(C)Oc2ccccc23)cc1` (configuration not stated), 44.4 µg/mL (≈ 143 µM).
In the case of `Cc1cc2nc(Cl)c(Cl)nc2cc1C`, the kinetic solubility stood at 0.6 µg/mL (≈ 2.64 µM).
The result for `Cc1nc(Cl)c(C(=O)Nc2cccc(F)c2)c(C)c1Cl` reads 4.9 µg/mL (≈ 15.6 µM); that for `N/C(=N\OC(=O)c1ccc(Br)o1)c1cccnc1`, 39.1 µg/mL (≈ 126 µM).
